# T1: CheA WT (Tm CheA) (Thermotoga maritima, UniProt Q56310)
# T1 sequence (Q56310 1-671): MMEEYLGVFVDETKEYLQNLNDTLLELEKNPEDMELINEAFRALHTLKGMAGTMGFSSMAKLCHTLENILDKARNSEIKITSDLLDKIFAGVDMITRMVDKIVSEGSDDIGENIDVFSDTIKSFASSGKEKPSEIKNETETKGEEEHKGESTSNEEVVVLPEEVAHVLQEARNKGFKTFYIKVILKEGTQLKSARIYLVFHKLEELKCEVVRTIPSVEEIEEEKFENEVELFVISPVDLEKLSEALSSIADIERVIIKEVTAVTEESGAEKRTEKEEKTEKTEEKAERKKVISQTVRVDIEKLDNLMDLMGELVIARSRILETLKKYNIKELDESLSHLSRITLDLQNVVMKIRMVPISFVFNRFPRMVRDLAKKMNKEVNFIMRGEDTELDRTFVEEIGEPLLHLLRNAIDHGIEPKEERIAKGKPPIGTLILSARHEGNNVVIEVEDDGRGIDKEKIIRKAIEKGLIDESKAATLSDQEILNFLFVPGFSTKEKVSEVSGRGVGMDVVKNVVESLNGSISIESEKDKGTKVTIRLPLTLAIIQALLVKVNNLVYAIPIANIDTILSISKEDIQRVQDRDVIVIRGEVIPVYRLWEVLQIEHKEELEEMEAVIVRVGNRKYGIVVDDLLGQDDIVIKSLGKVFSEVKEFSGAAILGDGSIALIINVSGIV
# Experiments:
# CheA WT (Tm CheA) = biological target: T1, CheA WT (Tm CheA); assay: TNP-ATP displacement, fluorescence; assay type: binding
# SEC + other: SAXS = biological target: the molecule itself; assay: SEC + other: SAXS
Molecule,IC50 (CheA WT (Tm CheA)) [µM],stoichiometry N (SEC + other: SAXS)
Nc1ncnc2c1ncn2[C@@H]1O[C@H](COP(=O)(O)OP(=O)(O)O)[C@@H](O)[C@H]1O [ADP],405 ± 21,–
"Thermotoga maritima CheA WT (enzyme, UniProt Q56310 1-671, looked up) MMEEYLGVFVDETKEYLQNLNDTLLELEKNPEDMELINEAFRALHTLKGMAGTMGFSSMAKLCHTLENILDKARNSEIKITSDLLDKIFAGVDMITRMVDKIVSEGSDDIGENIDVFSDTIKSFASSGKEKPSEIKNETETKGEEEHKGESTSNEEVVVLPEEVAHVLQEARNKGFKTFYIKVILKEGTQLKSARIYLVFHKLEELKCEVVRTIPSVEEIEEEKFENEVELFVISPVDLEKLSEALSSIADIERVIIKEVTAVTEESGAEKRTEKEEKTEKTEEKAERKKVISQTVRVDIEKLDNLMDLMGELVIARSRILETLKKYNIKELDESLSHLSRITLDLQNVVMKIRMVPISFVFNRFPRMVRDLAKKMNKEVNFIMRGEDTELDRTFVEEIGEPLLHLLRNAIDHGIEPKEERIAKGKPPIGTLILSARHEGNNVVIEVEDDGRGIDKEKIIRKAIEKGLIDESKAATLSDQEILNFLFVPGFSTKEKVSEVSGRGVGMDVVKNVVESLNGSISIESEKDKGTKVTIRLPLTLAIIQALLVKVNNLVYAIPIANIDTILSISKEDIQRVQDRDVIVIRGEVIPVYRLWEVLQIEHKEELEEMEAVIVRVGNRKYGIVVDDLLGQDDIVIKSLGKVFSEVKEFSGAAILGDGSIALIINVSGIV",–,2

# Source: paper PMC10134573 (Biochemistry, 2022)
